# In US11426441B2, “Composition comprising protein phosphatase 1 inhibitory peptide for treating vascular diseases” (BethphaGen Inc., priority 2016, dated 2022):
# No end group written: not given here.
# Experiments:
# [1] = tested on: SERCA2a; assay: A23187-induced SERCA2a degradation in HCSMCs; type: cell-based, human; settings: HCSMCs pretreated 1 hour with 3 μM ψPLB-SE or 15 μM MDL28170, then 50 μM A23187 2 hours
# Description: FIGS. 4a, 4b, 4c and 4d. (4a-4c) HCSMCs were pretreated with 3 μM ψPLB-SE and 15 μM MDL28170 for 1 hour, and then treated with 50 μM A23187 for 2 hours. (4a) Immunostaining was performed with antibodies against SERCA2a and SERCA2b (green). Nuclei were stained with Hoechst (blue). Representative merged images are shown. Scale bar, 50 μm. (4b) Western blot analysis was performed with cell extracts. Data are expressed as the means±SD (n=3-4; *, P<0.05). (4c) Baseline Ca^2+ concentration was measured by lonOptix calcium imaging system. (4d) RASMC were treated with ψPLB-SE or control peptide under the same conditions as described for FIG. 1B. The baseline Ca^2+ concentration was measured by lonOptix calcium imaging system (*, P<0.05).
# (§1) The rat aortic smooth muscle cells (RASMCs) were isolated from the medial layer of the thoracic aorta derived from male Sprague-Dawley rats (body weight, 180-200 g) by an enzymatic reaction with collagenase (50 U/mL, Worthington) and pancreatic elastase (0.25 mg/mL, Sigma-Aldrich) for 4 hours at 37. The cells were collected and resuspended in DMEM containing 20% (v/v) fetal bovine serum. The resuspension was then plated on collagen I (Sigma-Aldrich)-coated glass coverslips and incubated at 37 in an atmosphere of 5% (v/v) CO2 and 95% (v/v) air. Human coronary smooth muscle cells (HCSMCs), pulmonary arterial endothelial cells (PAECs), and pulmonary arterial smooth muscle cells (PASMCs) were purchased from Lonza and cultured in EBM or SmBM (Lonza) supplemented with 0.5 mg/mL hEGF, […], 1 mg/mL hFGF, […] gentamicin/amphotericin-B, and 5% fetal bovine serum. All the cells were cultured at 37 in 5% (v/v) CO2 and 95% (v/v) air. RASMCs and HCSMCs were, respectively, plated at the densities of 1×10^4 cells/cm^2 and 1×10^5 cells/cm^2 for immunostaining and western blotting experiments. […]
# (§2) Vascular smooth muscle cells (VSMCs) were homogenized in a minimal volume of 50 mM Tris-HCl, pH 7.4, supplemented with a broad-spectrum protease inhibitor cocktail (Calbiochem). […] The blots were scanned and quantified using LAS software.
# [2] = tested on: pulmonary arterial smooth muscle cells (PASMCs); assay: PASMC proliferation (PCNA western blotting, cell proliferation assay); type: cell-based; settings: synthetic phenotype induction
# Description: FIGS. 19a and 19b. […] (19a) Protein expression was quantitatively analyzed through western blotting using antibodies against PCNA and GAPDH 12 and 24 hours after the treatment. (19b) Cell proliferation assay was performed using EZ-CyTox cell viability assay kit.
# as §1, with “serum.” for “serum. All the cells were cultured at 37 in 5% (v/v) CO2 and 95% (v/v) air. RASMCs and HCSMCs were, respectively, plated at the densities of 1×10^4 cells/cm^2 and 1×10^5 cells/cm^2 for immunostaining and western blotting experiments.”
# as §2
# [3] = tested on: SERCA2a; assay: Aorta ex vivo organ culture, SERCA2a western blotting; type: cell-based; settings: ex vivo culture of rat thoracic aorta, injury by scratching
# Description: A rat thoracic aorta was harvested and incubated in RPMI-1640 medium containing 20 mM HEPES, 2 mM L-glutamine, 100 IU/mL penicillin, and 100 μg/mL streptomycin. The adventitia was removed, and the aorta was cut longitudinally and fixed onto a resin. To investigate the degradation of SERCA2a, tissue fragments were cultured for 7-10 days in RPMI-1640 medium containing 20% (v/v) FCS. The medium was replaced every 48 hours.
# Vascular smooth muscle cells (VSMCs) were homogenized in a minimal volume of 50 mM Tris-HCl, pH 7.4, supplemented with a broad-spectrum protease inhibitor cocktail (Calbiochem). The proteins were separated by SDS-PAGE and then transferred to polyvinylidene fluoride membranes (Schleicher & Schuell). After blocking with 5% (w/v) non-fat milk for 1 hour and washing with TBST, the membranes were incubated with antibodies against SERCA2a, SERCA2b (21st century biochemical), PCNA (abcam), GAPDH (Sigma-Aldrich), phospho-eNOS, eNOS, phospho-eIF2α, eIF2α (cell signaling), Vimentin, α-SMA, BMPR2 (Santa cruz), phospho-Akt, Akt (cell signaling), phospho-phospholamban (Merck), and Phospholamban (cell signaling). The membranes were then incubated with horseradish peroxidase-conjugated secondary antibodies (Jackson ImmunoResearch, West Grove, Pa., USA) and developed using a chemiluminescent substrate (Dogen). The blots were scanned and quantified using LAS software.
sequence,measurement,setting,value
"RAETIEMPQ (not fully specified) [ψPLB-SE, 9-mer PP1 decoy peptide mimicking phosphorylated PLB; conjugated via GGG linker to cell penetrating peptide dNP2 or TAT]",A23187 (Ca^2+)-dependent degradation of SERCA2a,[1],completely inhibited
same,cell proliferation (cell proliferation assay),[2],inhibiting cell proliferation
same,expression of PCNA,[2],attenuated
same,injury-dependent reduction of SERCA2a in VSMCs,[3],completely inhibited
